The source of these data is US20100210536A1, “USE OF LEPTIN (22-56 ) AS A THERAPEUTIC AGENT” (priority 2007, published 2010).

The nature of data set [1]: in vitro. The settings on record: human.
A short description of data set [2]: in vitro. The settings on record: human, MRC-5 cells.
Another data set concerns Streptococcus pneumoniae. The class given is cell-based. The settings on record: 5 micrograms per ml.
Another data set deals with MRSA. As to conditions: 5 micrograms per ml.
Another data set deals with Pseudomonas aeruginosa. The class given is cell-based. The settings on record: 5 micrograms per ml.
Data set [3] is described as follows: in vitro. The settings on record: human, HepG2-2.2.15 cells.
In a further data set the test system is MRC-5 cells. In words: Cytotoxicity in MRC-5 cells (CellTiter 96 cell viability). The settings on record: 6 days incubation.

Where no end group is shown, it is not given here.

In “in vitro [1]”, “VPIQKVQDDTKTLIKTIVTRINDISHTQSVSSKQK-OH [Leptin (22-56)]” gave a viability at 10 micrograms per ml of 93.5%. Besides, the viability at 144 h in “in vitro [2]” is 100%. Moreover, the “% inhibition” value in the data set on Streptococcus pneumoniae, in the data set with MRSA and in the data set on Pseudomonas aeruginosa was 0.0% in each case. The same molecule gave a viability at 144 h, 10 micrograms per ml in the data set “in vitro [3]” of 100%.
`Nc1nc(O)c2ncn(COC(CO)CO)c2n1` [Ganciclovir]: the “% Cell viability” value with MRC-5 cells came out at 100%.
